Values joined by “and” are separate entries in the source; they are usually repeats but may differ in a detail not shown here. Equal entries are not always repeated. Toxic doses and inconclusive results are not listed. No stated cut-off is given here; in the data, active means T/C of 150% or more; inactive means T/C below 125%.
System: L1210 leukemia ip in BDF1 mice, survival T/C
Assay: NCI In Vivo Anticancer Drug Screen. Data for tumor model L1210 Leukemia (intraperitoneal) in B6D2F1 (BDF1) mice
Details: endpoint: mean survival time, higher = longer survival
Method in brief: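 Antitumor effect is assessed in tumor-bearing animals. Survival in the compound arm is compared with a vehicle-dosed control arm and expressed as their quotient.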

[1] = dose: 100.0 mg/kg/injection, schedule: Q04DX003 (ip), vehicle: saline with Tween-80
[2] = dose: 200.0 mg/kg/injection, schedule: Q04DX003 (ip), vehicle: saline with Tween-80
[3] = dose: 400.0 mg/kg/injection, schedule: Q04DX003 (ip), vehicle: saline with Tween-80
[4] = dose: 50.0 mg/kg/injection, schedule: Q01DX009 (ip), vehicle: saline with Tween-80
[5] = dose: 100.0 mg/kg/injection, schedule: Q01DX009 (ip), vehicle: saline with Tween-80
[6] = dose: 100.0 mg/kg/injection, schedule: Q01DX001 (ip), vehicle: carboxymethylcellulose (CMC)
[7] = dose: 100.0 mg/kg/injection, schedule: Q04DX003 (ip), vehicle: Klucel (hydroxypropylcellulose) (HPC)
[8] = dose: 200.0 mg/kg/injection, schedule: Q04DX003 (ip), vehicle: Klucel (hydroxypropylcellulose) (HPC)
[9] = dose: 400.0 mg/kg/injection, schedule: Q04DX003 (ip), vehicle: Klucel (hydroxypropylcellulose) (HPC)
[10] = dose: 100.0 mg/kg/injection, schedule: Q01DX001 (ip), vehicle: saline
[11] = dose: 200.0 mg/kg/injection, schedule: Q01DX001 (ip), vehicle: saline

Measured: T/C

CCCOC(=O)Nc1cccc(OC(=O)NC)c1
inactive: [1] 105 % of control | [2] 94 % of control | [3] 96 % of control

OCC1OC(n2ncc3c(=S)nc[nH]c32)C(O)C1O (configuration not stated)
inactive: dose: 12.5 mg/kg/injection, schedule: Q01DX005 (ip), vehicle: other 103 % of control | dose: 25.0 mg/kg/injection, schedule: Q01DX005 (ip), vehicle: other 95 % of control | dose: 50.0 mg/kg/injection, schedule: Q01DX005 (ip), vehicle: other 97 % of control | dose: 100.0 mg/kg/injection, schedule: Q01DX005 (ip), vehicle: other 98 % of control | dose: 200.0 mg/kg/injection, schedule: Q01DX005 (ip), vehicle: other 98 % of control

Cn1nc(CC(=O)O)c(C(N)=O)c1N
inactive: dose: 12.5 mg/kg/injection, schedule: Q01DX009 (ip), vehicle: Klucel (hydroxypropylcellulose) (HPC) 93 % of control | dose: 25.0 mg/kg/injection, schedule: Q01DX009 (ip), vehicle: Klucel (hydroxypropylcellulose) (HPC) 101 % of control | dose: 50.0 mg/kg/injection, schedule: Q01DX009 (ip), vehicle: Klucel (hydroxypropylcellulose) (HPC) 96 % of control and 102 % of control | dose: 200.0 mg/kg/injection, schedule: Q01DX009 (ip), vehicle: Klucel (hydroxypropylcellulose) (HPC) 98 % of control

O=C(CCCCCCCCC(=O)N/N=C/c1ccc(Cl)c(Cl)c1)N/N=C/c1ccc(Cl)c(Cl)c1
inactive: [4] 91 % of control | [5] 93 % of control | [1] 89 % of control | [2] 89 % of control

C/C=C/c1ccc2ccc[n+](C)c2c1O
inactive: dose: 25.0 mg/kg/injection, schedule: Q04DX003 (ip), vehicle: saline 94 % of control | dose: 50.0 mg/kg/injection, schedule: Q01DX001 (ip), vehicle: carboxymethylcellulose (CMC) 103 % of control | dose: 50.0 mg/kg/injection, schedule: Q04DX003 (ip), vehicle: saline 98 % of control | [6] 95 % of control | dose: 100.0 mg/kg/injection, schedule: Q04DX003 (ip), vehicle: saline 94 % of control

COc1cc(N(CCCl)CCCl)ccc1C1N(Cc2ccc(N(C)C)cc2)CCCN1Cc1ccc(N(C)C)cc1
inactive: [7] 100 % of control | [8] 107 % of control | [9] 104 % of control

Clc1ccc2c(OCCN3CC3)ccnc2c1
inactive: [6] 102 % of control

CCOC(=O)NCC(CCCCN(C)C)(c1cccc2ccccc12)C(C)CC (configuration not stated)
inactive: dose: 12.5 mg/kg/injection, schedule: Q01DX009 (ip), vehicle: saline with Tween-80 96 % of control | dose: 25.0 mg/kg/injection, schedule: Q01DX009 (ip), vehicle: saline with Tween-80 97 % of control | [4] 100 % of control

NCC(OCC(=O)O)C(Cl)(Cl)Cl (configuration not stated)
inactive: [5] 93 % of control | dose: 200.0 mg/kg/injection, schedule: Q01DX009 (ip), vehicle: saline with Tween-80 95 % of control | dose: 400.0 mg/kg/injection, schedule: Q01DX009 (ip), vehicle: saline with Tween-80 90 % of control

CN1CCN(/N=N/N2CCN(C)CC2)CC1
inactive: dose: 100.0 mg/kg/injection, schedule: Q01DX001 (ip), vehicle: Klucel (hydroxypropylcellulose) (HPC) 105 % of control | dose: 200.0 mg/kg/injection, schedule: Q01DX001 (ip), vehicle: Klucel (hydroxypropylcellulose) (HPC) 101 % of control | dose: 400.0 mg/kg/injection, schedule: Q01DX001 (ip), vehicle: Klucel (hydroxypropylcellulose) (HPC) 100 % of control

CCC1CN2CCc3cc(OC)c(OC)cc3C2CC1CC1c2cc(OC)c(OC)cc2CCN1C(=O)C1CCCN1 (configuration not stated)
inactive: dose: 50.0 mg/kg/injection, schedule: Q01DX001 (ip), vehicle: saline 95 % of control | [10] 111 % of control | [11] 95 % of control

Cc1cc(C(=O)C(=O)OC(c2ccccc2)c2ccccc2)c(CN2C(=O)c3ccccc3C2=O)c(=O)n1C
inactive: dose: 25.0 mg/kg/injection, schedule: Q04DX002 (ip), vehicle: saline with Tween-80 101 % of control | dose: 50.0 mg/kg/injection, schedule: Q04DX002 (ip), vehicle: saline with Tween-80 108 % of control | dose: 100.0 mg/kg/injection, schedule: Q04DX002 (ip), vehicle: saline with Tween-80 108 % of control

Cc1c2ccccc2c(C)c2c1ccc1ccccc12
inactive: dose: 6.25 mg/kg/injection, schedule: Q01DX001 (ip), vehicle: acetone 123 % of control | dose: 12.37 mg/kg/injection, schedule: Q04DX003 (ip), vehicle: saline with Tween-80 112 % of control

COc1ccc(Sc2cccc3c2C(=O)c2c(Sc4ccc(OC)cc4)cccc2C3=O)cc1
inactive: [1] 91 % of control | [2] 96 % of control | [3] 87 % of control

CCCCCNc1ccc(C(=O)O)cc1
inactive: dose: 37.5 mg/kg/injection, schedule: Q01DX009 (ip), vehicle: saline 100 % of control | dose: 75.0 mg/kg/injection, schedule: Q01DX001 (ip), vehicle: acetone 88 % of control | dose: 75.0 mg/kg/injection, schedule: Q01DX009 (ip), vehicle: saline 95 % of control | dose: 75.0 mg/kg/injection, schedule: Q04DX003 (ip), vehicle: saline 100 % of control | dose: 150.0 mg/kg/injection, schedule: Q01DX001 (ip), vehicle: acetone 96 % of control | dose: 150.0 mg/kg/injection, schedule: Q01DX009 (ip), vehicle: saline 92 % of control | dose: 150.0 mg/kg/injection, schedule: Q04DX003 (ip), vehicle: saline 97 % of control | dose: 300.0 mg/kg/injection, schedule: Q01DX001 (ip), vehicle: acetone 102 % of control | dose: 300.0 mg/kg/injection, schedule: Q04DX003 (ip), vehicle: saline 97 % of control

O=C(N/N=C\c1ccc2c(c1)OCO2)N/N=C/c1ccc2c(c1)OCO2
inactive: [7] 97 % of control | [8] 100 % of control | [9] 97 % of control

O=C(Nc1ccc(C2=NCCCCN2)cc1)c1ccc(C(=O)Nc2ccc(C3=NCCCCN3)cc2)c(Cl)c1
inactive: dose: 0.12 mg/kg/injection, schedule: Q01DX015 (ip), vehicle: water 101 % of control | dose: 0.25 mg/kg/injection, schedule: Q01DX015 (ip), vehicle: water 101 % of control | dose: 0.5 mg/kg/injection, schedule: Q01DX015 (ip), vehicle: water 100 % of control and 101 % of control | dose: 0.75 mg/kg/injection, schedule: Q01DX015 (ip), vehicle: water 103 % of control

O=C(Nc1ccc(C(F)(F)F)c([N+](=O)[O-])c1)c1ccc(C(=O)Nc2ccc(C(F)(F)F)c([N+](=O)[O-])c2)cc1
inactive: dose: 100.0 mg/kg/injection, schedule: Q01DX001 (ip), vehicle: other 96 % of control | dose: 200.0 mg/kg/injection, schedule: Q01DX001 (ip), vehicle: other 93 % of control | dose: 400.0 mg/kg/injection, schedule: Q01DX001 (ip), vehicle: other 86 % of control

CN(C)C1CS(=O)(=O)CC1[N+](C)(C)C (configuration not stated)
inactive: dose: 100.0 mg/kg/injection, schedule: Q04DX002 (ip), vehicle: saline 118 % of control | dose: 200.0 mg/kg/injection, schedule: Q04DX002 (ip), vehicle: saline 89 % of control | dose: 400.0 mg/kg/injection, schedule: Q04DX002 (ip), vehicle: saline 110 % of control

CCOC(=O)OCCc1ccccc1
inactive: [6] 106 % of control | dose: 100.0 mg/kg/injection, schedule: Q01DX009 (ip), vehicle: carboxymethylcellulose (CMC) 103 % of control and 92 % of control | dose: 100.0 mg/kg/injection, schedule: Q04DX002 (ip), vehicle: carboxymethylcellulose (CMC) 97 % of control and 109 % of control | dose: 100.0 mg/kg/injection, schedule: Q04DX003 (ip), vehicle: carboxymethylcellulose (CMC) 98 % of control | dose: 200.0 mg/kg/injection, schedule: Q01DX001 (ip), vehicle: carboxymethylcellulose (CMC) 100 % of control | dose: 200.0 mg/kg/injection, schedule: Q01DX009 (ip), vehicle: carboxymethylcellulose (CMC) 95 % of control and 103 % of control | dose: 200.0 mg/kg/injection, schedule: Q04DX002 (ip), vehicle: carboxymethylcellulose (CMC) 98 % of control and 100 % of control | dose: 200.0 mg/kg/injection, schedule: Q04DX003 (ip), vehicle: carboxymethylcellulose (CMC) 98 % of control | dose: 400.0 mg/kg/injection, schedule: Q01DX001 (ip), vehicle: carboxymethylcellulose (CMC) 105 % of control | dose: 400.0 mg/kg/injection, schedule: Q01DX009 (ip), vehicle: carboxymethylcellulose (CMC) 93 % of control and 98 % of control | dose: 400.0 mg/kg/injection, schedule: Q04DX002 (ip), vehicle: carboxymethylcellulose (CMC) 97 % of control and 106 % of control | dose: 400.0 mg/kg/injection, schedule: Q04DX003 (ip), vehicle: carboxymethylcellulose (CMC) 102 % of control

CC(C(=O)O)S(=O)(=O)Cc1ccccc1 (configuration not stated)
inactive: [10] 94 % of control | [11] 97 % of control | dose: 400.0 mg/kg/injection, schedule: Q01DX001 (ip), vehicle: saline 100 % of control
